Results reported in publication PMC10709440, “High-throughput ligand profile characterization in novel cell lines expressing seven heterologous insect olfactory receptors for the detection of volatile plant biomarkers” (Scientific Reports, 2023).
Read-outs that look alike come from different tables or passages of the source.

Columns and labels:
Drosophila OR71a = biological target: T1, Drosophila OR71a (Drosophila melanogaster, UniProt Q9VUK5); experiment: Calcium ion fluorescence (GCaMP6) assay, OR71a stable HEK293 cell line; type: cell-based; settings: for OR71a response (VUAA1-normalized) at 1 μM / OR71a response (VUAA1-normalized) at 10 μM / OR71a response (VUAA1-normalized) at 100 μM / Average response: OR71a cell line; for Average response: VUAA1-normalized response, mean of biological replicates; for activation at 1 µM / activation at 10 µM / activation at 100 µM: HEK293, read-out: OR71a response (VUAA1-normalized response)
T1 construct: expressed in transfected cells
T1 sequence (Q9VUK5 1-378): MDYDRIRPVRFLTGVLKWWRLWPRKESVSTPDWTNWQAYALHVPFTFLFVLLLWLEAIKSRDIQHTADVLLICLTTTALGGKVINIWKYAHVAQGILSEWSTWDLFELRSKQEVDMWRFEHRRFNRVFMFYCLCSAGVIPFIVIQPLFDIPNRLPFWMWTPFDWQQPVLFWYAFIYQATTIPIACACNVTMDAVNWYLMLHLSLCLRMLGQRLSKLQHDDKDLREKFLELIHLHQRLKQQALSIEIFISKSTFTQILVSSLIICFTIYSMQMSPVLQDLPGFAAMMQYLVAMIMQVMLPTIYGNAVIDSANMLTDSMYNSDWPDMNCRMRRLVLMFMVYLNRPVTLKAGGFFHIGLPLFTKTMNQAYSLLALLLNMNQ
T1 sequence (Q9VNB5 1-486 partner): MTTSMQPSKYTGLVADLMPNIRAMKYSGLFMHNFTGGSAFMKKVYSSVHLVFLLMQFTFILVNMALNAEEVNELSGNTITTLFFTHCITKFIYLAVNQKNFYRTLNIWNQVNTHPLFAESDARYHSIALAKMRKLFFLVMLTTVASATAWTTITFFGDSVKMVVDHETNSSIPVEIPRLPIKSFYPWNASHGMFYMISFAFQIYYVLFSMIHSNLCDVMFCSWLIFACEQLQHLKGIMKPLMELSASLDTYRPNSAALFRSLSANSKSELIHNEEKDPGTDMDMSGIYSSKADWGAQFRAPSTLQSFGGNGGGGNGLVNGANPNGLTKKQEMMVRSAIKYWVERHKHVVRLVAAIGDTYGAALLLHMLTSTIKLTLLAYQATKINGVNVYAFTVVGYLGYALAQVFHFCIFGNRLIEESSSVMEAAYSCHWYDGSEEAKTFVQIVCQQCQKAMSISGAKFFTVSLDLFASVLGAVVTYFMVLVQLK
Outline: (§1)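 HEK293 lines stably expressing each Drosophila OR with GCaMP6, doxycycline-induced (1 μg/mL) 48 or 72 h. Fluorescence recorded 5 s baseline then 30 s after VOC injection at pH 7.3; ΔF=(FMAX−F0)/F0, normalized to 50 µM VUAA1 response per line, triplicate wells averaged; concentration series 0.01–100 μM.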

Drosophila OR98a = biological target: T2, Drosophila OR98a (Drosophila melanogaster, UniProt Q9VAZ3); experiment: Calcium ion fluorescence (GCaMP6) assay, OR98a stable HEK293 cell line; type: cell-based; settings: for OR98a response (VUAA1-normalized) at 1 μM / OR98a response (VUAA1-normalized) at 10 μM / OR98a response (VUAA1-normalized) at 100 μM / Average response: OR98a cell line; for Average response: average of biological replicates, fraction of VUAA1 response
T2 construct: expressed in transfected cells
T2 sequence (Q9VAZ3 1-397): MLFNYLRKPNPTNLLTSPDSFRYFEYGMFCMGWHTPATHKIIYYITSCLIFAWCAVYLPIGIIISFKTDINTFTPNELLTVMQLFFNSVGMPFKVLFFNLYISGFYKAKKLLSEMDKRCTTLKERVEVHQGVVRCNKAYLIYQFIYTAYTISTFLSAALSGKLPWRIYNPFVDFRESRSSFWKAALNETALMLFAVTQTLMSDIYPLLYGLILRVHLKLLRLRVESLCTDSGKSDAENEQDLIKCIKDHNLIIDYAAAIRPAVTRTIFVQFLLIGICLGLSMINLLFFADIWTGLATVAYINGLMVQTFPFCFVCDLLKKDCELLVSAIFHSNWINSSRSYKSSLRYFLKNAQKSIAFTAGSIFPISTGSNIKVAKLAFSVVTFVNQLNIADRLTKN
T2 sequence (Q9VNB5 1-486 partner): T1 sequence (Q9VNB5 1-486 partner)
Outline: as §1

[1] = ligand concentration 1 (unit not given), threshold 0.05, below shown as 0
[2] = ligand concentration 10 (unit not given), threshold 0.05, below shown as 0
[3] = ligand concentration 100 (unit not given), threshold 0.05, below shown as 0
[4] = HEK293, read-out: Average response
[5] = HEK293, read-out: OR98a Average response (VUAA1-normalized)
[6] = concentration 1, normalized fluorescence change, values below 0.05 threshold given as 0
[7] = concentration 10, normalized fluorescence change, values below 0.05 threshold given as 0
[8] = concentration 100, normalized fluorescence change, values below 0.05 threshold given as 0
[9] = HEK293, read-out: OR98a response (VUAA1-normalized response)
[10] = ligand concentration 1 (unit not given), 0.05 threshold, values below shown as 0
[11] = ligand concentration 10 (unit not given), 0.05 threshold, values below shown as 0
[12] = ligand concentration 100 (unit not given), 0.05 threshold, values below shown as 0

| Structure (SMILES) | Average response (Drosophila OR71a; cc. 1 µM) | Average response (Drosophila OR71a; cc. 10 µM) | Average response (Drosophila OR71a; cc. 100 µM) | DF norm AVERAGE OR71a (Drosophila OR71a; [1]) | DF norm AVERAGE OR71a (Drosophila OR71a; [2]) | DF norm AVERAGE OR71a (Drosophila OR71a; [3]) | activation at 1 µM (Drosophila OR98a; [4]) | activation at 10 µM (Drosophila OR98a; [4]) | activation at 100 µM (Drosophila OR98a; [4]) | DF norm AVERAGE OR98a (Drosophila OR98a; [1]) | DF norm AVERAGE OR98a (Drosophila OR98a; [2]) | DF norm AVERAGE OR98a (Drosophila OR98a; [3]) | activation at 1 µM (Drosophila OR71a) | activation at 10 µM (Drosophila OR71a) | activation at 100 µM (Drosophila OR71a) | DF norm AVERAGE OR71a (Drosophila OR71a; [6]) | DF norm AVERAGE OR71a (Drosophila OR71a; [7]) | activation at 1 µM (Drosophila OR98a; [9]) | activation at 10 µM (Drosophila OR98a; [9]) | activation at 100 µM (Drosophila OR98a; [9]) | further results |
| --- | --- | --- | --- | --- | --- | --- | --- | --- | --- | --- | --- | --- | --- | --- | --- | --- | --- | --- | --- | --- | --- |
| CCCCCOC(C)=O [pentyl acetate] | 0.00 | 0.0163 | 0.09 | 0 | 0 | 0.08698 | 1.61% | 4% | 14% | 0 | 0 | 0.136 | – | – | – | – | – | – | – | – | OR71a response (VUAA1-normalized) at 1 μM (Drosophila OR71a; VOC concentration 1 μM): 0.00; OR71a response (VUAA1-normalized) at 10 μM (Drosophila OR71a; VOC concentration 10 μM): 0.00; OR71a response (VUAA1-normalized) at 100 μM (Drosophila OR71a; VOC concentration 100 μM): 0.09; activation at 1 µM (Drosophila OR98a; [5]): 2%; activation at 10 µM (Drosophila OR98a; [5]): 4%; activation at 100 µM (Drosophila OR98a; [5]): 14%; OR98a response (VUAA1-normalized) at 1 μM (Drosophila OR98a; VOC concentration 1 μM): 0.00; OR98a response (VUAA1-normalized) at 10 μM (Drosophila OR98a; VOC concentration 10 μM): 0.00; OR98a response (VUAA1-normalized) at 100 μM (Drosophila OR98a; VOC concentration 100 μM): 0.14 |
| COc1cccc(OC)c1 [1,3-dimethoxy benzene] | 0.00 | 0.04 | 0.00 | – | – | – | 0% | 1.66% | 3.31% | – | – | – | 0% | 0% | 0% | 0 | 0 | 0% | 0% | 0% | DF norm AVERAGE OR71a (Drosophila OR71a; [8]): 0; DF norm AVERAGE OR98a (Drosophila OR98a; [6]): 0; DF norm AVERAGE OR98a (Drosophila OR98a; [7]): 0; DF norm AVERAGE OR98a (Drosophila OR98a; [8]): 0 |
| C=C(C)C1CCC2(C)OC2C1 (single isomer, unassigned; (+)) [(+)-limonene oxide] | 0.0247 | 0.0256 | 0.00 | – | – | – | – | – | – | – | – | – | – | – | – | 0 | 0 | – | – | – | OR71a response (VUAA1-normalized response) (Drosophila OR71a; VOC concentration 1 μM): 0.00; OR71a response (VUAA1-normalized response) (Drosophila OR71a; VOC concentration 10 μM): 0.00; OR71a response (VUAA1-normalized response) (Drosophila OR71a; VOC concentration 100 μM): 0.00; DF norm AVERAGE OR71a (Drosophila OR71a; [8]): 0; OR98a response (VUAA1-normalized response) (Drosophila OR98a; VOC concentration 1 μM): 0.00; OR98a response (VUAA1-normalized response) (Drosophila OR98a; VOC concentration 10 μM): 0.00; OR98a response (VUAA1-normalized response) (Drosophila OR98a; VOC concentration 100 μM): 0.00; Average response (Drosophila OR98a; cc. 1 µM): 0.00; Average response (Drosophila OR98a; cc. 10 µM): 0.00; Average response (Drosophila OR98a; cc. 100 µM): 0.00; DF norm AVERAGE OR98a (Drosophila OR98a; [6]): 0; DF norm AVERAGE OR98a (Drosophila OR98a; [7]): 0; DF norm AVERAGE OR98a (Drosophila OR98a; [8]): 0 |
| Cc1ccccc1 [toluene] | 0.00 | 0.00 | 0.00 | – | – | – | 0% | 4% | 3.33% | – | – | – | – | – | – | – | – | – | – | – | OR71a response (VUAA1-normalized) at 1 μM (Drosophila OR71a; VOC concentration 1 μM): 0.00; OR71a response (VUAA1-normalized) at 10 μM (Drosophila OR71a; VOC concentration 10 μM): 0.00; OR71a response (VUAA1-normalized) at 100 μM (Drosophila OR71a; VOC concentration 100 μM): 0.00; DF norm AVERAGE OR71a (Drosophila OR71a; [10]): 0; DF norm AVERAGE OR71a (Drosophila OR71a; [11]): 0; DF norm AVERAGE OR71a (Drosophila OR71a; [12]): 0; OR98a response (VUAA1-normalized) at 1 μM (Drosophila OR98a; VOC concentration 1 μM): 0.00; OR98a response (VUAA1-normalized) at 10 μM (Drosophila OR98a; VOC concentration 10 μM): 0.00; OR98a response (VUAA1-normalized) at 100 μM (Drosophila OR98a; VOC concentration 100 μM): 0.00; DF norm AVERAGE OR98a (Drosophila OR98a; [10]): 0; DF norm AVERAGE OR98a (Drosophila OR98a; [11]): 0; DF norm AVERAGE OR98a (Drosophila OR98a; [12]): 0 |
| C=C1CC[C@H]2O[C@]2(C)CC[C@@H]2[C@@H]1CC2(C)C [(-)-caryophyllene oxide] | 0.00 | 0.00 | 0.0744 | – | – | – | 0% | 4% | 0% | – | – | – | 0% | 0% | 7.44% | 0 | 0 | 0% | 0% | 0% | DF norm AVERAGE OR71a (Drosophila OR71a; [8]): 0.07441; DF norm AVERAGE OR98a (Drosophila OR98a; [6]): 0; DF norm AVERAGE OR98a (Drosophila OR98a; [7]): 0; DF norm AVERAGE OR98a (Drosophila OR98a; [8]): 0 |
| C=CCc1ccc(O)c(OC)c1 [eugenol] | 0.00 | 0.0465 | 0.0247 | 0 | 0 | 0 | 3.37% | 0% | 0% | 0 | 0 | 0 | 0% | 0% | 0% | – | – | 0% | 0% | 0% | – |
| O=Cc1ccccc1 [benzaldehyde] | 0.03 | 0.00 | 0.00 | 0 | 0 | 0 | 0% | 0% | 4.43% | 0 | 0 | 0 | 0% | 0% | 0% | – | – | 0% | 0% | 0% | – |
